Where two headings read alike, the source gives them in different places.
Legend:
[1] = test system: human FADD-deficient Jurkat T cells; test: Cellular necrosis inhibition, FADD-deficient Jurkat T cells challenged with TNF-alpha (CellTiter-Glo viability); conditions: 30 hours, ATP-based cell viability
Experimental: FADD−/− Jurkat cells (Juo P, et al. Cell Growth Differ. 1999, 10(12):797-804) were seeded at the density of 5*10^5 cells/mL into 96 well white plates (Costar) at 100 μL/well. […] Cells were treated in duplicate with various concentrations of test compounds in the presence or absence of 10 ng/ml human TNF-alpha. (Cell Sciences).
After 30 hours, viability of the cells was determined using luminescent ATP-based cell viability assay (CellTiter-Glo, Promega). Percentage of protection by the compound was calculated as a ratio of the cps (counts per second) value in the well treated with the test compound and TNF-alpha. to the cps value in the well treated with the compound alone. Assays were repeated twice, and the average EC50 value over both assays was calculated.
Exemplary compounds of structure (II) were screened for anti-necrotic activity according to the general procedures of Example 7.

[2] = target: GST-human RIP1 kinase domain (amino acids 1-327) (Homo sapiens (Human), UniProt Q13546); test: RIP1 kinase ADP-Glo assay
GST-human RIP1 kinase domain (amino acids 1-327), sequence (Q13546 1-327): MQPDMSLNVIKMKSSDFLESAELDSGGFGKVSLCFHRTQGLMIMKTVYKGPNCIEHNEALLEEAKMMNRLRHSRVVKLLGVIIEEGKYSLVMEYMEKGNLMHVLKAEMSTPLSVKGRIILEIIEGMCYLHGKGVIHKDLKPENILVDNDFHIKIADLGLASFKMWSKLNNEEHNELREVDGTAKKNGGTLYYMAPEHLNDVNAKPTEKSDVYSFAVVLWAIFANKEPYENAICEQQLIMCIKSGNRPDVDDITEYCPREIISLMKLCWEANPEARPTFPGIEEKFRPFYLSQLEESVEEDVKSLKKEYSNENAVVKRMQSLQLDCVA
Experimental: RIP1 kinase assays were performed using ADP-Glo assay (Promega) according to manufacturer's protocol. […] Reactions were performed for 4 hr at room temperature and stopped by incubation with ADP-Glo reagent for 40 min at room temperature. Luminescent signal was developed by incubation with Kinase Detection reagent for 30 min at room temperature. Signal was determined using Victor3V platereader (Perkin Elmer). Non-linear regression to calculate EC50 values was performed using GraphPad Prism software package.

[3] = 10 ng/ml human TNF-alpha plus Smac mimetic (10 nM SM-164), read-out: EC50 (nM) TNFα + Smac
[4] = 10 ng/ml human TNF-alpha, read-out: EC50 (nM) TNFα

EC50 [2] | Compound | EC50 [1, 3] | EC50 [1, 4]
 | CN1C(=O)N[C@H](Cc2c[nH]c3c(Cl)ccc(F)c23)C1=O [Compound E, reference compound] | 8330 nM | 2330 nM
 | O=C1NC(Cc2c[nH]c3c(Cl)cccc23)C(=O)N1Cc1ccc(F)cc1 (centres unmarked) [II-4, 5-((7-chloro-1H-indol-3-yl)methyl)-3-(4-fluorobenzyl)imidazolidine-2,4-dione] | 867 nM | 220 nM
93.7 nM | CN1C(=O)N[C@H](Cc2c[nH]c3c(Cl)c(F)ccc23)C1=O [Compound (Ia), (R)-5-((7-chloro-6-fluoro-1H-indol-3-yl)methyl)-3-methylimidazolidine-2,4-dione] | 86.6 nM | 
 | O=C1NC(Cc2c[nH]c3c(Cl)c(F)ccc23)C(=O)N1Cc1ccccc1F (centres unmarked) [II-5, 5-((7-chloro-6-fluoro-1H-indol-3-yl)methyl)-3-(2-fluorobenzyl)imidazolidine-2,4-dione] | 892 nM | 235 nM
 | O=C1NC(Cc2c[nH]c3c(Cl)c(F)ccc23)C(=O)N1Cc1ccc(F)c(F)c1 (centres unmarked) [II-7, 5-((7-chloro-6-fluoro-1H-indol-3-yl)methyl)-3-(3,4-difluorobenzyl)imidazolidine-2,4-dione] | 722 nM | 121 nM
 | CN1C(=O)N[C@H](Cc2c[nH]c3c(Cl)cccc23)C1=O [Compound A, reference compound] | 324 nM | 90.5 nM
 | CN1C(=O)N[C@H](Cc2c[nH]c3c(Cl)cc(F)cc23)C1=O [Compound F, reference compound] | > 100000 nM | 10500 nM
 | O=C1NC(Cc2c[nH]c3ccccc23)C(=O)N1Cc1ccc(Cl)cc1 (centres unmarked) [Compound C1, reference compound] |  | 343 nM
 | CN1C(=O)N[C@H](Cc2c[nH]c3c(Cl)c(Cl)ccc23)C1=O [B, reference compound] |  | > 100000 nM
 | O=C1NC(Cc2c[nH]c3c(Cl)c(F)ccc23)C(=O)N1Cc1cccc(F)c1F (centres unmarked) [II-6, 5-((7-chloro-6-fluoro-1H-indol-3-yl)methyl)-3-(2,3-difluorobenzyl)imidazolidine-2,4-dione] | 822 nM | 50 nM
< 100 nM | O=C1NC(Cc2c[nH]c3c(Cl)cccc23)C(=O)N1Cc1ccc(F)c(F)c1 (centres unmarked) [II-3, 5-((7-chloro-1H-indol-3-yl)methyl)-3-(3,4-difluorobenzyl)imidazolidine-2,4-dione] | 426 nM | 89 nM
< 100 nM | O=C1NC(Cc2c[nH]c3c(Cl)cccc23)C(=O)N1Cc1cccc(F)c1 (centres unmarked) [II-2, 5-((7-chloro-1H-indol-3-yl)methyl)-3-(3-fluorobenzyl)imidazolidine-2,4-dione] | 895 nM | 41 nM
 | O=C1NC(Cc2c[nH]c3c(Cl)cccc23)C(=O)N1Cc1ccccc1F (centres unmarked) [II-1, 5-((7-chloro-1H-indol-3-yl)methyl)-3-(2-fluorobenzyl)imidazolidine-2,4-dione] | 11000 nM | 159 nM
